Read-outs that look alike come from different tables or passages of the source.
Experiments:
[1] = target: T1, DAT (Rattus norvegicus, UniProt P23977); assay: Dopamine transporter binding, inhibition of [^3H]WIN35428 binding in rat caudate membranes; conditions: 2 h; read-out: DAT Binding εmax
T1 construct: from tissue; host or cells: rat caudate membranes
Procedure: The ability of test drugs to inhibit [^3H]WIN35428 binding to DAT in rat caudate membranes was assessed as follows. For each experiment, caudates from four rat brains were suspended in 15 mL ice cold assay buffer (50 mM sodium phosphate pH 7.4) and homogenized using a polytron (setting 6, 20 sec). The homogenate was centrifuged at 30,000×g for 10 minutes at 4° C. The pellet was resuspended with vigorous vortexing in 15 mL fresh ice cold assay buffer, and the centrifugation was repeated. The pellet was resuspended in 15 mL fresh ice cold assay buffer with vigorous vortexing followed by six strokes with a glass-on-glass hand-held homogenizer and was diluted to a final volume of 235 mL in ice cold assay buffer. [^3H]WIN35428 was diluted to 10 nM in assay buffer that contained 25 μg/mL chymostatin, 25 μg/mL leupeptin, 0.1 mM EDTA, and 0.1 mM EGTA. Each assay tube contained 0.75 mL membrane preparation, 0.15 mL test drug diluted in assay buffer containing 1 mg/mL bovine serum albumin, and 0.1 mL [^3H]WIN35428 preparation (final concentration of 1 nM). Assays were initiated by the addition of membranes and were terminated after 2 hours at 25° C. by rapid vacuum filtration. Retained tritium was measured as described. The data from three experiments were pooled and fit to a dose-response curve equation (using Kaleidagraph), to yield an Emax and EC50 value.

[2] = target: T2, serotonin transporter (SERT) (Rattus norvegicus, UniProt P31652); assay: Serotonin reuptake ([^3H]serotonin uptake) inhibition in rat brain synaptosomes; assay type: biochemical
T2 construct: Freshly removed whole brain minus cerebellum and caudate was homogenized; from tissue; host or cells: rat whole brain minus cerebellum and caudate, synaptosomes
T2 sequence (P31652 whole entry): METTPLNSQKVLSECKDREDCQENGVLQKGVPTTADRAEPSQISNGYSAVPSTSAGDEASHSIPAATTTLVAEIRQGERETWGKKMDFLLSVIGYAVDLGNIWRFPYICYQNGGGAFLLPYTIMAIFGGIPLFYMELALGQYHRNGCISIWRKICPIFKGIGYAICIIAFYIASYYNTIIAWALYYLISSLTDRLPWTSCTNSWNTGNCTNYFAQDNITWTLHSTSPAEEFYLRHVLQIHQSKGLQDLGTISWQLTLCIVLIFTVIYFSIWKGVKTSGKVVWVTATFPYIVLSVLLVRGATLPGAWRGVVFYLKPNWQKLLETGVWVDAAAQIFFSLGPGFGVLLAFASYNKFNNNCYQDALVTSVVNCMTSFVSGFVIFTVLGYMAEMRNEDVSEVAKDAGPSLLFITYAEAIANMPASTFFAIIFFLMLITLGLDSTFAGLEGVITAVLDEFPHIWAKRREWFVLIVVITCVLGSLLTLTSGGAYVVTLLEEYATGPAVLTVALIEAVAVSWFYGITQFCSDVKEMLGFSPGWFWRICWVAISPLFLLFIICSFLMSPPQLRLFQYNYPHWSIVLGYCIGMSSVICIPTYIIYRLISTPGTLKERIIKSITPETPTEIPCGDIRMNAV

[3] = target: dopamine transporter (DAT) (Rattus norvegicus, UniProt P23977); assay: Dopamine reuptake ([^3H]dopamine uptake) inhibition in rat brain synaptosomes
Chain of dopamine transporter (DAT) (P23977 whole entry): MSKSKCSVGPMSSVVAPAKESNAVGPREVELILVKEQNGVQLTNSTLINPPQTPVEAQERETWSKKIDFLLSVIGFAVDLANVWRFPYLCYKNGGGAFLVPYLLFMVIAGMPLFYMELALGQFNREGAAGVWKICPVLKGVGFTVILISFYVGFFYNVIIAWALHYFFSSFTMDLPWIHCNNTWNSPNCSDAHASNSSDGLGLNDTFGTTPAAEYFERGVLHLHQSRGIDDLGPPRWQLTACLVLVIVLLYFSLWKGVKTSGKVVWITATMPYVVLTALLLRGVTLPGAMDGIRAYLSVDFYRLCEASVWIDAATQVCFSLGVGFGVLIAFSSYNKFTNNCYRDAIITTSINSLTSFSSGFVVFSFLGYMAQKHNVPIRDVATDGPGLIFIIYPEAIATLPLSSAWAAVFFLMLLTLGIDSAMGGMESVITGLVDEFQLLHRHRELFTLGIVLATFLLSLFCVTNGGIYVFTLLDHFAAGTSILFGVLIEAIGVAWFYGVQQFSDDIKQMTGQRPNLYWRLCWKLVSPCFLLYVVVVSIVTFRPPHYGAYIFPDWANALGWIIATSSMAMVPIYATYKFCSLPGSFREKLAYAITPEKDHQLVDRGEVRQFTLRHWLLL
Procedure: Freshly removed caudate was homogenized in 10% ice-cold sucrose with 12 strokes of a hand-held Potter-Elvehj em homogenizer followed by centrifugation at 1000×g for 10 min. The supernatants were saved on ice and used immediately. Transporter activity was assessed using 5 nM [^3H]dopamine. […] The selectivity of the uptake assay for dopamine active transporter (DAT) was optimized by including 100 nM citalopram and 100 nM desipramine as blockers of serotonin transporter (SERT) and norepinephrine transporter (NET) in the sucrose solution and assay buffer. Uptake inhibition assays were conducted at 25° C. and were initiated by adding 100 μl of tissue to 900 μL assay buffer containing test drug and [^3H]dopamine. Test drugs were diluted in assay buffer containing 1 mg/mL bovine serum albumin. Nonspecific uptake was measured by incubating in the presence of 10 μM indatraline. The reactions were stopped after 15 minutes by rapid vacuum filtration with a cell harvester (BRANDEL) over GF/B filters (Whatman) presoaked in wash buffer maintained at 25° C. (10 mM Tris-HCl, pH 7.4/150 mM NaCl). Filters were rinsed with 6 mL wash buffer and retained tritium was quantified by a MicroBeta liquid scintillation counter (PerkinElmer) after overnight extraction in 0.6 mL of liquid scintillation cocktail (Cytoscint, ICN). The data from three experiments were pooled and fit to a dose-response curve equation (using Kaleidagraph), to yield an Emax and EC50 value.
(§1) The data from three experiments were pooled and fit to a dose-response curve equation (using KaleidaGraph; Synergy Software, Reading, Pa.) to yield an Emax and IC50 value.

[4] = target: norepinephrine transporter (NET) (Rattus norvegicus, UniProt Q9WTR4); assay: Norepinephrine reuptake ([^3H]norepinephrine uptake) inhibition in rat brain synaptosomes; conditions: for NE Uptake Emax (% I ± SD): maximal inhibition from dose-response fit
Procedure: Freshly removed whole brain minus cerebellum and caudate was homogenized in 10% ice-cold sucrose with 12 strokes of a hand-held Potter-Elvehjem homogenizer followed by centrifugation at 1000×g for 10 minutes. The supernatants were saved on ice and used immediately. Transporter activity at NET was assessed using 10 nM [^3H]norepinephrine. […] Uptake inhibition assays were conducted at 37° C. and were initiated by adding 100 μL of tissue to 900 μL assay buffer containing test drug and [^3H]norepinephrine. Test drugs were diluted in assay buffer containing 1 mg/mL bovine serum albumin. Nonspecific uptake was measured by incubating in the presence of 10 μM indatraline. The reactions were stopped after 10 minutes by rapid vacuum filtration with a cell harvester (BRANDEL) over GF/B filters (Whatman) presoaked in wash buffer maintained at 25° C. (10 mM Tris-HCl, pH 7.4/150 mM NaCl). Filters were rinsed with 6 mL wash buffer and retained tritium was quantified by a MicroBeta liquid scintillation counter (PerkinElmer) after overnight extraction in 0.6 mL of liquid scintillation cocktail (Cytoscint, ICN). The data from three experiments were pooled and fit to a dose-response curve equation (using Kaleidagraph), to yield an Emax and EC50 value.
as §1

[5] = mean ± S.D., n = 3, read-out: SERT Uptake IC50
[6] = DAT Uptake IC50, [3H]DA uptake inhibition, mean ± S.D., n = 3
[7] = read-out: NET Uptake IC50, mean ± S.D., n = 3
[8] = mean ± S.D., n = 3, read-out: SERT Uptake Emax
[9] = rat brain synaptosomes, 10 nM [^3H]norepinephrine
[10] = read-out: NE Uptake EC50 (nM ± SD), rat brain synaptosomes, 10 nM [^3H]norepinephrine, 10 min, 37° C.
[11] = DA Uptake EC50 (nM ± SD), rat caudate synaptosomes, 5 nM [^3H]dopamine, 15 min, 25° C., three experiments pooled
[12] = read-out: DA Uptake Emax (% I ± SD)

T1 sequence (P23977 whole entry): as above

| SMILES | NET Uptake Emax ([4]; mean ± S.D., n = 3) | IC50 [3, 11] | Emax [3, 12] | melting point | other results |
| --- | --- | --- | --- | --- | --- |
| CS(=O)(=O)Nc1ccc(-c2nc(NCC(O)(c3ccccc3)c3ccccc3)c3ccccc3n2)cc1 [SRI-30504] | 70 ± 2% |  |  |  | Emax [1]: 47 ± 7%; IC50 [2, 5]: 50 ± 14 nM; IC50 [3, 6]: 11 ± 2 nM; IC50 [4, 7]: 426 ± 49 nM |
| CN(C)c1ncc(-c2nc(NCC(O)(c3ccccc3)c3ccccc3)c3ccccc3n2)cn1 [compound 80, 2-((2-(2-(Dimethylamino)Pyrimidin-5-yl)Quinazolin-4-yl)Amino)-1,1-Diphenylethanol] | 71 ± 2% |  |  |  | Emax [1]: 47 ± 6%; Emax [2, 8]: 51 ± 1%; IC50 [2, 5]: 54 ± 7 nM; IC50 [3, 6]: 13 ± 2 nM; Emax ([3]; read-out: DAT Uptake Emax): 73 ± 2%; NE Uptake Emax (% I ± SD) [4, 9]: 71 ± 2 % I; IC50 [4, 10]: 259 ± 41 nM; IC50 [4, 7]: 259 ± 41 nM |
| OC(CNc1nc(-c2ccc3[nH]ccc3c2)nc2ccccc12)(c1ccccc1)c1ccccc1 [compound 81, 2-((2-(1H-Indol-5-yl)Quinazolin-4-yl)Amino)-1,1-Diphenylethanol] | 73 ± 6% |  |  |  | Emax [1]: 55 ± 3%; Emax [2, 8]: 57 ± 2%; IC50 [2, 5]: 35 ± 9 nM; IC50 [3, 6]: 11 ± 2 nM; Emax ([3]; read-out: DAT Uptake Emax): 70 ± 2%; NE Uptake Emax (% I ± SD) [4, 9]: 73 ± 6 % I; IC50 [4, 10]: 203 ± 79 nM; IC50 [4, 7]: 203 ± 79 nM |
| c1ccc(C(CNc2nc(-c3cnc4nccn4c3)nc3ccccc23)c2ccccn2)cc1 (centres unmarked) [compound 98, 2-(Imidazo[1,2-A]Pyrimidin-6-yl)-N-(2-Phenyl-2-(Pyridin-2-yl)Ethyl)Quinazolin-4-Amine] | 77 ± 2% |  |  |  | Emax [1]: 62 ± 7%; Emax [2, 8]: 54 ± 2%; IC50 [2, 5]: 28 ± 6 nM; IC50 [3, 6]: 18 ± 3 nM; Emax ([3]; read-out: DAT Uptake Emax): 71 ± 2%; NE Uptake Emax (% I ± SD) [4, 9]: 77 ± 2 % I; IC50 [4, 10]: 132 ± 16 nM; IC50 [4, 7]: 132 ± 16 nM |
| c1ccc(C(CNc2nc(-c3ccc4nccn4c3)nc3ccccc23)c2cccnc2)cc1 (centres unmarked) [compound 131, 2-(Imidazo[1,2-A]Pyridin-6-yl)-N-(2-Phenyl-2-(Pyridin-3-yl)Ethyl)Quinazolin-4-Amine] | 75 ± 3% |  |  |  | Emax [1]: 44 ± 3%; Emax [2, 8]: 59 ± 3%; IC50 [2, 5]: 35 ± 11 nM; IC50 [3, 6]: 21 ± 3 nM; Emax ([3]; read-out: DAT Uptake Emax): 70 ± 2%; NE Uptake Emax (% I ± SD) [4, 9]: 75 ± 3 % I; IC50 [4, 10]: 78 ± 17 nM; IC50 [4, 7]: 78 ± 17 nM |
| COC(=O)[C@H]1[C@@H](OC(=O)c2ccccc2)C[C@@H]2CC[C@H]1N2C [cocaine, reference compound] | 102 ± 2% |  |  |  | Emax ([2]; read-out: SERT Uptake Emax): 98 ± 2%; Emax ([3]; read-out: DAT Uptake Emax): 100 ± 2% |
| CS(=O)(=O)Nc1ccc(-c2nc(NCC(c3ccccc3)c3ccncc3)c3ccccc3n2)cc1 (centres unmarked) [SRI-30524] | 76 ± 2% |  |  |  | IC50 [2, 5]: 8.7 ± 0.9 nM; IC50 [4, 7]: 44 ± 6 nM |
| CNc1ncc(-c2nc(NCC(c3ccccc3)c3ccccc3)c3ccccc3n2)cn1 [compound 41, N-(2,2-Diphenylethyl)-2-(2-(Methylamino)Pyrimidin-5-yl)Quinazolin-4-Amine] | 78 ± 2% |  |  |  | Emax [1]: 59 ± 6%; Emax [2, 8]: 60 ± 3%; IC50 [2, 5]: 57 ± 18 nM; IC50 [3, 6]: 11 ± 1 nM; Emax ([3]; read-out: DAT Uptake Emax): 71 ± 1%; NE Uptake Emax (% I ± SD) [4, 9]: 78 ± 2 % I; IC50 [4, 10]: 179 ± 27 nM; IC50 [4, 7]: 179 ± 27 nM |
| OC(CNc1nc(-c2ccc3nccn3c2)nc2ccccc12)(c1ccccc1)c1ccccc1 [compound 96, 2-((2-(Imidazo[1,2-A]Pyridin-6-yl)Quinazolin-4-yl)Amino)-1,1-Diphenylethanol] |  | 9.2 ± 1.2 nM | 70 ± 1% |  | IC50 ([2]; rat brain synaptosomes, 5 nM [^3H]serotonin, 30 min, 25° C., read-out: 5HT Uptake EC50 (nM ± SD)): 16 ± 5 nM; Emax ([2]; rat brain synaptosomes, 5 nM [^3H]serotonin, maximal inhibition from dose-response fit, read-out: 5HT Uptake Emax (% I ± SD)): 55 ± 2%; NE Uptake Emax (% I ± SD) [4, 9]: 65 ± 3 % I; IC50 [4, 10]: 98 ± 23 nM |
| c1ccc(CC(CNc2nc(-c3ccc4nccn4c3)nc3ccccc23)c2ccccc2)cc1 (centres unmarked) [compound 136, N-(2,3-Diphenylpropyl)-2-(imidazo[1,2-a]pyridin-6-yl)quinazolin-4-amine] |  | 34 ± 4 nM | 78 ± 2% | 208 to 210 °C |  |
| Nc1ncc(-c2nc(NCC(c3ccccc3)C3CCCCC3)c3ccccc3n2)cn1 (centres unmarked) [compound 101, 2-(2-Aminopyrimidin-5-yl)-N-(2-Cyclohexyl-2-Phenylethyl)Quinazolin-4-Amine] |  | 79 ± 19 nM | 75 ± 3% | 105 °C |  |
| CS(=O)(=O)Nc1ccc(-c2nc(NCC(c3ccccc3)c3ccccc3)c3ccccc3n2)cn1 [compound 138, N-(5-(4-((2,2-Diphenylethyl)Amino)Quinazolin-2-yl)Pyridin-2-yl)Methanesulfonamide] |  | 26 ± 3 nM | 63 ± 1% | 210 °C |  |
| COc1ccc2nc(-c3cnc(N(C)C)nc3)nc(NCC(c3ccccc3)c3ccccc3)c2c1 [compound 60, 2-(2-(Dimethylamino)Pyrimidin-5-yl)-N-(2,2-Diphenylethyl)-6-Methoxyquinazolin-4-Amine] |  | 947 ± 402 nM | 55 ± 6% | 198 °C |  |
| CC(C)(C)OC(=O)Nc1ncc(-c2nc(NCC(c3ccccc3)c3ccccc3)c3ccccc3n2)cn1 [compound 43, Tert-Butyl (5-(4-((2,2-Diphenylethyl)Amino)Quinazolin-2-yl)Pyrimidin-2-yl)Carbamate] |  | 1890 nM | < 100% | 189 °C |  |
| c1ccc(C(Nc2nc(-c3cncnc3)nc3ccccc23)c2ccccc2)cc1 [compound 14, N-Benzhydryl-2-(pyrimidin-5-yl)quinazolin-4-amine] |  | 234 ± 36 nM | 74 ± 2% | 210 °C |  |
| Cn1ncc2cc(-c3nc(NCC(c4ccccc4)c4ccccc4)c4ccccc4n3)ccc21 [compound 67, N-(2,2-Diphenylethyl)-2-(1-Methyl-1H-Indazol-5-yl)Quinazolin-4-Amine] |  | 43 ± 9 nM | 66 ± 2% | 200 °C |  |
| COc1cc2nc(-c3cccnc3)nc(NCC(c3ccccc3)c3ccccc3)c2cc1OC [compound 28, N-(2,2-Diphenylethyl)-6,7-Dimethoxy-2-(Pyridin-3-yl)Quinazolin-4-Amine] |  | 620 nM | < 100% | 89 °C |  |
| c1ccc(C(CNc2nc(-c3ccc4nccn4c3)nc3ccccc23)N2CCCCC2)cc1 (centres unmarked) [compound 119, 2-(Imidazo[1,2-A]Pyridin-6-yl)-N-(2-Phenyl-2-(Piperidin-1-yl)Ethyl)Quinazolin-4-Amine] |  | 117 ± 35 nM | 83 ± 5% | 193 to 195 °C |  |
| c1ccc(C(CNc2nc(-c3cncnc3)nc3ccccc23)c2ccccc2)cc1 [compound 18, N-(2,2-Diphenylethyl)-2-(Pyrimidin-5-yl)Quinazolin-4-Amine] |  | 160 nM | < 100% | 213 to 215 °C |  |
| c1ccc(C(Nc2nc(-c3ccsc3)nc3ccccc23)c2ccccc2)cc1 [compound 11, N-Benzhydryl-2-(thiophen-3-yl)quinazolin-4-amine] |  | 770 nM | 100% | 152 to 155 °C |  |
| O=C1Cc2cc(-c3nc(NCC(c4ccccc4)c4ccccc4)c4ccccc4n3)ccc2N1 [compound 78, 5-(4-((2,2-Diphenylethyl)Amino)Quinazolin-2-yl)Indolin-2-One] |  | 30 ± 5 nM | 77 ± 2% | 244 °C |  |
| c1ccc(C(CNc2nc(N3CCc4[nH]ccc4C3)nc3ccccc23)c2ccccc2)cc1 [compound 163, 2-(6,7-Dihydro-1H-Pyrrolo[3,2-C]Pyridin-5(4H)-yl)-N-(2,2-Diphenylethyl)Quinazolin-4-Amine] |  | 3.7 ± 1.5 nM | 87 ± 6% | 166 to 168 °C |  |
| Cn1ccc2cc(-c3nc(NCC(c4ccccc4)c4cccnc4)c4ccccc4n3)ccc21 (centres unmarked) [compound 137, 2-(1-Methyl-1H-Indol-5-yl)-N-(2-Phenyl-2-(Pyridin-3-yl)Ethyl)Quinazolin-4-Amine] |  | 44 ± 8 nM | 76 ± 2% | 91 to 93 °C |  |
| c1ccc(C(CNc2nc(-c3cccc4[nH]ccc34)nc3ccccc23)c2ccccc2)cc1 [compound 32, N-(2,2-Diphenylethyl)-2-(1H-Indol-4-yl)Quinazolin-4-Amine] |  | 189 ± 37 nM | 68 ± 3% | 100 °C |  |
| CN(C)c1ccc(-c2nc(NC(c3ccccc3)c3ccccc3)c3ccccc3n2)cn1 [compound 92, N-Benzhydryl-2-(6-(Dimethylamino)Pyridin-3-yl)Quinazolin-4-Amine] |  | 34 ± 5 nM | 68 ± 2% | 207 °C |  |

— patent US9873702B2, “Heterocyclic compounds as biogenic amine transport modulators” (Southern Research Institute, priority 2014, dated 2018)
